From patent US5317101A, “Tricyclic heterocycles” (Imperial Chemical Industries PLC, priority 1991, dated 1994)

Tests used:
[1] = target: T1, EP1 receptors (PGE2 -induced contractions of the ileum) (Cavia porcellus, UniProt A0A286XHJ6); test: Test (a): in-vitro guinea pig ileum assay, inhibition of PGE2-induced contractions; type: cell-based; settings: PGE2-induced contraction, read-out: pA2 value (converted)
T1 construct: ileum was immersed in oxygenated Krebs solution; from tissue; host or cells: guinea pig ileum
T1 sequence (A0A286XHJ6 1-405): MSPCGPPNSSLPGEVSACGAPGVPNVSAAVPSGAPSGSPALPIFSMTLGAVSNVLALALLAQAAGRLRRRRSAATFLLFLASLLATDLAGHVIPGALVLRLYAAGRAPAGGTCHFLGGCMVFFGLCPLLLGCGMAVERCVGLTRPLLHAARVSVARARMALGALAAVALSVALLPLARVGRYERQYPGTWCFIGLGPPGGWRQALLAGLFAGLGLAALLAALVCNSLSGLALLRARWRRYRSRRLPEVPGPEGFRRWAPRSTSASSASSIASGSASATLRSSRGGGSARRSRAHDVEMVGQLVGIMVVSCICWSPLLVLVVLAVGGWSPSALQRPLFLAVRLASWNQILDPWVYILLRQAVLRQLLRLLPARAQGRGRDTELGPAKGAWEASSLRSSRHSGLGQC
Procedure: (a) an in-vitro guinea pig ileum assay which assesses the inhibitory properties of a test compound against PGE2 -induced contractions of the ileum; ileum was immersed in oxygenated Krebs solution containing indomethacin (4 μg/ml) and atropine (1 μM) and which was maintained at 37° C.; the ileum was subject to a tension of 1 g; a control dose response curve for PGE2 -induced contraction of the ileum was obtained; test compound (dissolved in dimethylsulphoxide) was added to the Krebs solution and a dose response curve for the PGE2 - induced contraction of the ileum in the presence of the test compound was obtained; the pA2 value for the test compound was calculated;
Prostanoid receptors and in particular receptors for PGE2 have been tentatively characterised by Kennedy et al. (Advances in Prostaglandin, Thromboxane and Leukotriene Research, 1983, 11, 327).

[2] = tested on: abdominal constriction induced by the intraperitoneal administration of phenylbenzoquinone; test: Test (b): in-vivo assay in mice, PBQ-induced abdominal constriction; settings: 100 mg/kg, oral dosing
From the text: (b) an in-vivo assay in mice which assesses the inhibitory properties of a test compound against abdominal constriction induced by the intraperitoneal administration of phenylbenzoquinone (hereinafter PBQ) using the procedure disclosed in European Patent Application No. 0218077.

[3] = tested on: PGE2 receptors; settings: guinea pig ileum or dog fundus; cited from earlier work

Row | Kb [1] [nM] | SMILES | activity in Test (b) [2] | effect on PGE2 action [3]
1 | 25.1 | O=C(O)c1ccc(CN2Cc3ccccc3Nc3ccccc32)s1 [5-(10,11-dihydrodibenzo[b,e][1,4]diazepin-10-ylmethyl)thiophene-2-carboxylic acid] | significant activity | –
2 | 31.6 | O=C(O)c1ccc(CN2Cc3ccccc3Oc3ccc(Cl)cc32)s1 [5-(8-chloro-10,11-dihydrodibenzo[b,f][1,4]oxazepin-10-ylmethyl)thiophene-2-carboxylic acid] | – | –
3 | – | CC(=O)NNC(=O)N1Cc2ccccc2Oc2ccc(Cl)cc21 [SC-19220] | – | blocks the effect of PGE2
